Series [1] relates to Oca2-null (OCA2) melanocytes. Put plainly: melanin assay in Oca2-null melanocytes. The following applies: for pigmentation (melanin level) in Oca2-null melanocytes: FIG. 1, harvested after 5 days, relative to DMSO vehicle. The format is cell-based, mouse. On the procedure: (§1) Oca2-null cells were plated in 60 mm dishes for 24 hours followed by dosing with the indicated compounds. DMSO was used as a vehicle control (to establish the baseline for comparison). Cells were harvested after 5 days. Melanocytes were harvested in extraction buffer (50 mM Tris pH7.5, 2 mM EDTA, 150 mM NaCl) containing 1% Triton X-100 and protease inhibitors (Complete, Roche Indianapolis, Ind.) following two washes with 1× phosphate buffered saline (PBS). The lysate was centrifuged for 30 min at 13,000 rpm in a microfuge. The supernatant was removed and the protein concentration determined using a protein assay kit (BioRad, Richmond, Calif.). Three hundred μl of ethanol:ether (1:1) were added to the pellet, which was then vortexed. After incubation at room temperature for 10 min, the solvent was removed (leaving the melanin behind) and the ethanol:ether wash repeated without vortexing. The melanin was then dissolved in 2 N NaOH, 20% DMSO at 60-70° C. The optical density was determined at 490 nm. The value was normalized to protein concentration in the supernatant and expressed as a ratio of the melanin in the vehicle treated cells.
(§2) Cells were seeded in six-well plates in triplicate. After 24 hours, each cell line was treated with IBMX, forskolin or rapamycin, in addition, Oca2-null melanocytes were treated with bafilomycin. Plates were incubated for 72 hours. Melanocytes were harvested and a melanin assay performed as described above.
Oca2-null cells were plated in 60 mm dishes for 24 hours followed by dosing with the indicated compounds. DMSO was used as a vehicle control. […]
Selected compounds identified in the screen were tested using a traditional melanin assay in order to verify the findings of the screen. […] The supernatant was removed and the protein concentration determined using a protein assay kit (BioRad, Richmond, Calif.). […] The optical density was determined at 490 nm. The value was normalized to protein concentration in the supernatant and expressed as a ratio of the melanin in the untreated cells.

Series [2] deals with Oca3-null (OCA3) melanocytes. Put plainly: melanin assay in Oca3-null melanocytes. The format is cell-based, murine. The following applies: FIG. 2; 72 hours; relative to vehicle. Here is the method: as §1
Oca3-null melanocytes were seeded in six-well plates in triplicate. After 24 hours, each cell line was treated with vehicle, chloroquine or rapamycin. Plates were incubated for 72 hours. Melanocytes were harvested and a melanin assay performed as described above.

Series [3] relates to wildtype (WT) melanocytes. The conditions noted are these: Ni-Komatsu et al. 2008 Mol Pharmacol; cited from earlier work.
Another series has as its system wildtype melanocytes. Put plainly: toxicity to wildtype melanocytes. The class given is cell-based. The conditions noted are these: even at nanomolar concentrations.
A further series concerns Oca2-null melanocytes. Put plainly: toxicity to Oca2-null melanocytes. The format is cell-based, mouse. The following applies: compared with wildtype melanocytes.
The next series has as its system Oca2-null cells. Put plainly: 96-well melanin absorbance screen with MTS cell proliferation assay. The class given is cell-based, mouse. The following applies: library compounds at 5 and/or 1 μM; bafilomycin A1 as positive control. Here is the method:
The present inventors utilized the chemical genetics approach described herein to identify compounds that can be used to reverse the diminished pigmentation in Oca2-null cells. To this end, they first developed a 96-well assay system for rapid compound screening. Melanocytes were cultured in a 96-well plate in the presence of test compounds. Melanin content was determined by replacing the culture medium with PBS and measuring absorbance at 490 nm.
Following validation of their assay system, the present inventors performed a screen, treating Oca2-null cells with library compounds at concentrations of 5 and/or 1 μM. Each plate included untreated Oca2-null cells as negative controls and cells treated with bafilomycin A1 as positive controls. Compounds identified as potential hits were then re-screened to verify their ability to promote melanin synthesis in cells lacking functional Oca2 protein.
On the technique in general: Tetrazolium dyes change colour on reduction, which living cells bring about.

Series [4] concerns wildtype (WT) melanocytes. In words: melanin assay in wildtype melanocytes. The format is cell-based. The following applies: FIG. 3; 72 hours. Here is the method:
as §2
Wildtype cells were plated in 24-well plates for 24 hours followed by dosing with the indicated compounds. DMSO was used as a vehicle control. Cells were harvested after 3 days and a melanin assay was performed as described above.
Selected compounds identified in the screen were tested using a traditional melanin assay in order to verify the findings of the screen. Following 3 (normal melanocytes) or 5 (mutant melanocytes) days of treatment, melanocytes were harvested in extraction buffer (50 mM Tris pH7.5, 2 mM EDTA, 150 mM NaCl) containing 1% Triton X-100 and protease inhibitors (Complete, Roche Indianapolis, Ind.) following two washes with 1× phosphate buffered saline (PBS). The lysate was centrifuged for 30 min at 13,000 rpm in a microfuge. The supernatant was removed and the protein concentration determined using a protein assay kit (BioRad, Richmond, Calif.). […] The optical density was determined at 490 nm. The value was normalized to protein concentration in the supernatant and expressed as a ratio of the melanin in the untreated cells.

In the next series the test system is melanoma cells. The conditions noted are these: reported previously; by upregulating expression of tyrosinase; cited from earlier work.

The structures appear in SMILES notation.

For `CCN(CC)CCCC(C)Nc1ccnc2cc(Cl)ccc12` (racemic) [chloroquine, (RS)—N′-(7-chloroquinolin-4-yl)-N,N-diethyl-pentane-1,4-diamine], the “pigmentation (melanin level) in Oca2-null melanocytes” value in series [1] is on record as “increase pigmentation”. The “pigmentation (melanin level) in Oca3-null melanocytes” value in series [2] is on record as “increase pigmentation”. Further, in series [3], the “pigmentation in normal melanocytes” value is given as “decrease pigmentation”.
Take `CO/C1=C\C(C)=C\[C@@H](C)[C@@H](O)[C@@H](C)C/C(C)=C/C=C/[C@H](OC)[C@@H]([C@@H](C)[C@@H](O)[C@H](C)[C@@]2(O)C[C@@H](O)[C@H](C)[C@@H](C(C)C)O2)OC1=O` [Bafilomycin, bafilomycin A1]: in series [1] (FIG. 3, 72 hours), the “melanin content of Oca2-null (OCA2) melanocytes” value is reported as “increased the melanin content”. For the same compound, in the series with wildtype melanocytes, the “toxicity to wildtype melanocytes” value is listed as “highly toxic”. In the series on Oca2-null melanocytes, the “accompanying toxicity in Oca2-null melanocytes” value is recorded as “much less accompanying toxicity”. The “pigmentation of Oca2-null cells in 96-well screen” value with Oca2-null cells is “reverses the pigmentation phenotype”.
As for `CC(C)Cn1c(=O)n(C)c(=O)c2[nH]cnc21` [IBMX, 3-isobutyl-1-methylxanthine], the “melanin content of wildtype (WT) melanocytes” value in series [4] is recorded as “effective in increasing the melanin content”.
Take `CO[C@H]1C[C@@H]2CC[C@@H](C)[C@@](O)(O2)C(=O)C(=O)N2CCCC[C@H]2C(=O)O[C@H]([C@H](C)C[C@@H]2CC[C@@H](O)[C@H](OC)C2)CC(=O)[C@H](C)/C=C(\C)[C@@H](O)[C@@H](OC)C(=O)[C@H](C)C[C@H](C)/C=C/C=C/C=C/1C` [rapamycin, Rapamycin]: in series [1], the “pigmentation (melanin level) in Oca2-null melanocytes” value is given as “increase pigmentation”. Besides, in series [2], the “pigmentation (melanin level) in Oca3-null melanocytes” value is given as “increase pigmentation”. For the same compound, the “pigmentation in melanoma cells” value in the series with melanoma cells is “increase pigmentation”.

The record behind these values is patent US9717722B2, “Methods and agents for treating tyrosinase-positive albinism” (NEW YORK UNIVERSITY, priority 2013, dated 2017).
